Laboratory results taken from patent US11008337B2, “Chiral diaryl macrocycles as modulators of protein kinases” (Turning Point Therapeutics, Inc., priority 2015, dated 2021).

Columns and labels:
Type in all cases: cell-based
[1] = tested on: Colorectal cell lines KM 12 (harboring endogenous TPM3-TRKA fusion gene); assay: Cell proliferation assay, KM12 cells (CellTiter-Glo); conditions: Homo sapiens, 72 hours incubation
Procedure: (§1) Cell Proliferation Assays.
Colorectal cell lines KM 12 (harboring endogenous TPM3-TRKA fusion gene) cells were cultured in DMEM medium, supplemented with 10% fetal bovine serum and 100 U/mL of penicillin/streptomycin. 5000 cells were seeded in 384 well white plate for 24 hours before compounds treatment. Cell proliferation was measured using CellTiter-Glo luciferase-based ATP detection assay (Promega) following the manufactures's protocol after 72 hours incubation. IC50 determinations were performed using GraphPad Prism software (GraphPad, Inc., San Diego, Calif.). […] 5000 cells were seeded in 384 well white plate for 24 hours before compounds treatment. Cell proliferation was measured using CellTiter-Glo luciferase-based ATP detection assay (Promega) following the manufactures's protocol after 72 hours incubation. IC50 determinations were performed using GraphPad Prism software (GraphPad, Inc., San Diego, Calif.).

EML4-ALK Ba/F3 = biological target: T1, EML4-ALK Ba/F3 (Homo sapiens, UniProt Q9UM73); assay: Cell proliferation assay, EML4-ALK Ba/F3 stable cell line (CellTiter-Glo); conditions: Ba/F3-EML4-ALK wild type (variant 1) cells, 72 hours compound incubation; read-out: Cell Proliferation IC50 EML4-ALK Ba/F3
T1 construct: fused on or other part: Q9HC35 (Echinoderm microtubule-associated protein-like 4)
T1 sequence (Q9UM73 whole entry, change not shown, the tested form may be a part): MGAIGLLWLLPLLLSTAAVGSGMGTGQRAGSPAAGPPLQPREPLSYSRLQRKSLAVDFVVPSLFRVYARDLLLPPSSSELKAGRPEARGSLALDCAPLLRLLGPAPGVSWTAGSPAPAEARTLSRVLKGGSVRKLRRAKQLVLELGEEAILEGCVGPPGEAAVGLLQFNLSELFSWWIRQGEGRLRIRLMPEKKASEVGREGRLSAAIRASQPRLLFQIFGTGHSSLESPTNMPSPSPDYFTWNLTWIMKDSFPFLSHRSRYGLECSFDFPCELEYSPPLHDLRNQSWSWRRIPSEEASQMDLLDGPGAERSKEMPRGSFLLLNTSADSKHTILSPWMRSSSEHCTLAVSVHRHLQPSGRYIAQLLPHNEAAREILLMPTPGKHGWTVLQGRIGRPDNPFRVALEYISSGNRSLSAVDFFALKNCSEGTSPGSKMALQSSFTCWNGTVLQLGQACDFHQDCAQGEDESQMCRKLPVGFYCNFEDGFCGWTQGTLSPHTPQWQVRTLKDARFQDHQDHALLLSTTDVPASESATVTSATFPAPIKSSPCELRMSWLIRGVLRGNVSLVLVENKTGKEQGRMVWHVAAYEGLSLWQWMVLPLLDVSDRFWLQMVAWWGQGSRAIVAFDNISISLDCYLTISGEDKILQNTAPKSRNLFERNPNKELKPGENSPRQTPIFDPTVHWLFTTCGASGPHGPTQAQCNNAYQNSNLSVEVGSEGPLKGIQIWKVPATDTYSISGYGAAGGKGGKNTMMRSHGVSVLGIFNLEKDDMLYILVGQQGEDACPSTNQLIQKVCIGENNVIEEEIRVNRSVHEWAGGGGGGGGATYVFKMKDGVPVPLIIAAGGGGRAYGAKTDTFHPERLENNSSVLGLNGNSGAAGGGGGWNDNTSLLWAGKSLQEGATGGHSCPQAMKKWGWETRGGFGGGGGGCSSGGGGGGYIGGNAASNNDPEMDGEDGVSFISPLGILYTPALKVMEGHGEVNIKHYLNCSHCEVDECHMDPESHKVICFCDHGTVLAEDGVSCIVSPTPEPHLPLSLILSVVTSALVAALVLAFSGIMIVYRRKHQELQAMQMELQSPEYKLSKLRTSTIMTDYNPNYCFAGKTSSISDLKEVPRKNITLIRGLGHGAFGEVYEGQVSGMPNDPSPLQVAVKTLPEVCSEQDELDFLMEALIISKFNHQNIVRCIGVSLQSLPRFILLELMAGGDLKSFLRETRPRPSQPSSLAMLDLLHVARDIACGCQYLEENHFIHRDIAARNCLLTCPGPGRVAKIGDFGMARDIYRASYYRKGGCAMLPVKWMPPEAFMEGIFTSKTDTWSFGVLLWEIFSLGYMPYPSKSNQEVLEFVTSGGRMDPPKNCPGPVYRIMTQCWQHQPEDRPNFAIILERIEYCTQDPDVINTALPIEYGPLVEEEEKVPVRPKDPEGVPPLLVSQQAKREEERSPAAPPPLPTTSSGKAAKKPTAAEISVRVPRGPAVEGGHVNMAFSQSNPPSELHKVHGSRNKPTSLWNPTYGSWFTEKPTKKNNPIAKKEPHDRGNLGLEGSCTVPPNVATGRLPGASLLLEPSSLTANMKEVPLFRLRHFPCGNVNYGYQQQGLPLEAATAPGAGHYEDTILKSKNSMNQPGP
Text: (§2) Creation of CD74-ROS1 and EML4-ALK Ba/F3 Stable Cell Lines and Cell Proliferation Assays.
(§3) The CD74-ROS1 wild-type gene and EML4-ALK wild-type gene (variant 1) were synthesized at GenScript and cloned into pCDH-CMV-MCS-EF1-Puro plasmid (System Biosciences, Inc). Ba/F3-CD74-ROS1 and Ba/F3-EML4-ALK wild type cell lines were generated by infecting Ba/F3 cells with lentivirus containing CD74-ROS1 wide-type and EML4-ALK wild type. Stable cell lines were selected by puromycin treatment, followed by IL-3 withdrawal. 3000 cells were seeded in 384 well white plate overnight before compound treatment. Cell proliferation was measured using CellTiter-Glo luciferase-based ATP detection assay (Promega) following the manufactures's protocol after 72 hours of various concentration of compound incubation. IC50 determinations were performed using GraphPad Prism software (GraphPad, Inc., San Diego, Calif.).

[2] = tested on: T cell lymphoma Karpas-299 cell line (harboring endogenous NPM-ALK fusion gene); assay: Cell proliferation assay, Karpas-299 cells (CellTiter-Glo); conditions: Homo sapiens, 72 hours incubation
Procedure: as §1
(§4) Colorectal cell lines KM 12 (harboring endogenous TPM3-TRKA fusion gene) cells were cultured in DMEM medium, supplemented with 10% fetal bovine serum and 100 U/mL of penicillin/streptomycin. 5000 cells were seeded in 384 well white plate for 24 hours before compounds treatment. Cell proliferation was measured using CellTiter-Glo luciferase-based ATP detection assay (Promega) following the manufactures's protocol after 72 hours incubation. IC50 determinations were performed using GraphPad Prism software (GraphPad, Inc., San Diego, Calif.). Alternatively, essential thrombocythemia cell line SET-2 cells (harboring endogenous JAK2 […] point mutation) or T cell lymphoma Karpas-299 cell line (harboring endogenous NPM-ALK fusion gene) were cultured in RPMI medium, supplemented with 10% fetal bovine serum and 100 U/mL of penicillin/streptomycin. 5000 cells were seeded in 384 well white plate for 24 hours before compounds treatment. Cell proliferation was measured using CellTiter-Glo luciferase-based ATP detection assay (Promega) following the manufactures's protocol after 72 hours incubation. IC50 determinations were performed using GraphPad Prism software (GraphPad, Inc., San Diego, Calif.).

[3] = tested on: essential thrombocythemia cell line SET-2 cells (harboring endogenous JAK2 point mutation); assay: Cell proliferation assay, SET-2 cells (CellTiter-Glo); conditions: Homo sapiens, 72 hours incubation, read-out: Cell Proliferation IC50 SET2
Procedure: as §1, §4

CD74-ROS1 Ba/F3 = biological target: T2, CD74-ROS1 Ba/F3 (Homo sapiens, UniProt P08922); assay: Cell proliferation assay, CD74-ROS1 Ba/F3 stable cell line (CellTiter-Glo); conditions: Ba/F3-CD74-ROS1 wild type cells, 72 hours compound incubation; read-out: Cell Proliferation IC50 CD74-ROS1 Ba/F3
T2 construct: fused on or other part: P04233 (HLA class II histocompatibility antigen gamma chain)
T2 sequence (P08922 whole entry, change not shown, the tested form may be a part): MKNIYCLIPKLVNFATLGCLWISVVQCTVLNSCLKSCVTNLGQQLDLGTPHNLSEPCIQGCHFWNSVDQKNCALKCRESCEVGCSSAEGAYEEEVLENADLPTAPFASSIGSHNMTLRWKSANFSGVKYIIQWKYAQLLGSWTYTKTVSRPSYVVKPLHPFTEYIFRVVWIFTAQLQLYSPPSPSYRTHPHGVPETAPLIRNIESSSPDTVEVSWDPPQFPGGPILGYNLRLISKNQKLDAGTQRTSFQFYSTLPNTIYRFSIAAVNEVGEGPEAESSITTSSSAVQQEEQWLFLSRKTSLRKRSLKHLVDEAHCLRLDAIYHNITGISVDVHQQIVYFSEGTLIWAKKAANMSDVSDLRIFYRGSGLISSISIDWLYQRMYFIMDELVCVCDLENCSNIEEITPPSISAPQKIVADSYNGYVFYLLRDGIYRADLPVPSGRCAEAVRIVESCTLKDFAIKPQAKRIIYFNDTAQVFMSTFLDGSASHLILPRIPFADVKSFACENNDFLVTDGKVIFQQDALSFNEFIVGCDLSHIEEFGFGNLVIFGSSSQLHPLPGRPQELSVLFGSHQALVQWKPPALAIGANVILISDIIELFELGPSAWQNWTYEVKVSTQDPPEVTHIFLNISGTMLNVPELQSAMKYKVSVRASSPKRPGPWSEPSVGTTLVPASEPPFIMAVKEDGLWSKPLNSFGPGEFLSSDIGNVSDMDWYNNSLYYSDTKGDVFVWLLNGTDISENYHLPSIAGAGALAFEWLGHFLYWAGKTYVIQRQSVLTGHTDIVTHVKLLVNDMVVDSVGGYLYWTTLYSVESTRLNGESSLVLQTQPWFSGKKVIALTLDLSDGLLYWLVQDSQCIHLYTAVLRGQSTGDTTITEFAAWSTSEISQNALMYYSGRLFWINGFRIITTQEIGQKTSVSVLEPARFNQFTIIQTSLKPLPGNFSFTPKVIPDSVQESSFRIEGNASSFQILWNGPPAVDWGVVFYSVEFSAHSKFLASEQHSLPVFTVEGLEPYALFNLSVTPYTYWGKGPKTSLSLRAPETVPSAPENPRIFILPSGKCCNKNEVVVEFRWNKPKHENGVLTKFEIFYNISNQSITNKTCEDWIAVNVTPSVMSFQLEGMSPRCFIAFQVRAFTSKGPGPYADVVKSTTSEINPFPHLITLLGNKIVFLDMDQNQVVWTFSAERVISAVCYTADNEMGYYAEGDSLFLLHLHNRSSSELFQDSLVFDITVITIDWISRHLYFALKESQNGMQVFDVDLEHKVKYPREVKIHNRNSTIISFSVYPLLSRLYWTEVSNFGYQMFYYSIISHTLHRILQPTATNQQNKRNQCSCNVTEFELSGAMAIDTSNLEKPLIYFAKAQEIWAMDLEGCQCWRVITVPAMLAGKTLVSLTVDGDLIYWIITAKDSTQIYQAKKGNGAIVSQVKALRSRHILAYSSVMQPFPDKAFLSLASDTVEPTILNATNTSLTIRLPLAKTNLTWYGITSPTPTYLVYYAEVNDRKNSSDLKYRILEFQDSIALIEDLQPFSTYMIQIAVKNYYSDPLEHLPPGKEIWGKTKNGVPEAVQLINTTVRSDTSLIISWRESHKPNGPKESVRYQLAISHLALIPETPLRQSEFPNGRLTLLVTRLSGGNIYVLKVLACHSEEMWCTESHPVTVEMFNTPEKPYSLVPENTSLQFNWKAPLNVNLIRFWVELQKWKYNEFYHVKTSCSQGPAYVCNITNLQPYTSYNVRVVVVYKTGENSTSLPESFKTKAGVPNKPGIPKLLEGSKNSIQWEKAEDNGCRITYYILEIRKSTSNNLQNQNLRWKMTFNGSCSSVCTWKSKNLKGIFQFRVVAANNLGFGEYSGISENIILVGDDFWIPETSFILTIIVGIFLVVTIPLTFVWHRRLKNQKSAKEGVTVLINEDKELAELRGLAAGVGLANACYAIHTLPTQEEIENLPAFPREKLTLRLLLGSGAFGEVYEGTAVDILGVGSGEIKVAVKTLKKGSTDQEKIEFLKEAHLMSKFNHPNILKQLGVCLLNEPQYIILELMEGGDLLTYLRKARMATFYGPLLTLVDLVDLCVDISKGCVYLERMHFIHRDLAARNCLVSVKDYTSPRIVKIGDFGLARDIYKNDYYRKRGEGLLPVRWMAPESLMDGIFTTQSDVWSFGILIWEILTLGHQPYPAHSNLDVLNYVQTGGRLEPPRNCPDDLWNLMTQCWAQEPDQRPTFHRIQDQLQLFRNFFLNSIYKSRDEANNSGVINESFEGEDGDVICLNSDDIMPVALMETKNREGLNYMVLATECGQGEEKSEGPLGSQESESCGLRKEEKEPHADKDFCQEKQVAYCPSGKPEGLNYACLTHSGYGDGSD
Text: as §2, §3

| Structure (SMILES) | GI50 (EML4-ALK Ba/F3) [nM] | IC50 [2] [nM] | GI50 (CD74-ROS1 Ba/F3) [nM] | IC50 [1] [nM] | IC50 [3] [nM] |
| --- | --- | --- | --- | --- | --- |
| C[C@H]1Nc2ccn3ncc(c3n2)C(=O)N[C@H]2CCCC[C@@H]2Oc2ccc(F)cc21 [Compound 44, (4aS,10R,18aS)-8-fluoro-10-methyl-2,3,4,4a,10,11,18,18a-octahydro-12,14-ethenodibenzo[b,l]pyrazolo[4,3-f][1,4,8,10]oxatriazacyclotridecin-17(1H)-one] | 3000 |  |  | 56 | 1800 |
| C[C@H]1Nc2ccn3ncc(c3n2)C(=O)N[C@@H]2CCCC[C@H]2Oc2ccc(F)cc21 [Compound 45, (4aR,10R,18aR)-8-fluoro-10-methyl-2,3,4,4a,10,11,18,18a-octahydro-12,14-ethenodibenzo[b,l]pyrazolo[4,3-f][1,4,8,10]oxatriazacyclotridecin-17(1H)-one] | > 10000 |  |  | 0.4 | 206 |
| C[C@H]1Nc2ccn3ncc(c3n2)C(=O)N[C@H]2CCC[C@@H]2Oc2ccc(F)cc21 [Compound 46, (3aS,9R,17aS)-7-fluoro-9-methyl-1,2,3,3a,9,10,17,17a-octahydro-16H-11,13-ethenocyclopenta[b]pyrazolo[4,3-f][1,4,8,10]benzoxatriazacyclotridecin-16-one] | 2000 |  |  | 11 | 400 |
| C[C@H]1Nc2ccn3ncc(c3n2)C(=O)N[C@H]2CNC[C@H]2Oc2ccc(F)cc21 [Compound 48, (3aR,9R,17aS)-7-fluoro-9-methyl-1,2,3,3a,9,10,17,17a-octahydro-16H-11,13-ethenopyrazolo[4,3-f]pyrrolo[3,4-b][1,4,8,10]benzoxatriazacyclotridecin-16-one] | 5000 |  |  | > 10000 | > 10000 |
| C[C@H]1Nc2ccn3ncc(c3n2)C(=O)N2CCC[C@@H](C2)Oc2ccc(F)cc21 [Compound 53, (9S,15R)-13-fluoro-15-methyl-6,7,8,9,15,16-hexahydro-4H-1,17-etheno-5,9-methanopyrazolo[4,3-h][1,6,10,12]benzoxatriazacyclopentadecin-4-one] | 3000 |  |  | 37.3 | 505 |
| C[C@H]1Nc2ccn3ncc(c3n2)C(=O)N2CCC(CC2)Oc2ccc(F)cc21 [Compound 54] | > 10000 |  |  | 464 | > 10000 |
| C[C@@H]1Nc2ccn3ncc(c3n2)C(=O)NC[C@H](C)Oc2ncc(F)cc21 [Compound 59, (7S,13S)-11-fluoro-7,13-dimethyl-6,7,13,14-tetrahydro-1,15-ethenopyrazolo[4,3-f]pyrido[3,2-l][1,4,8,10]oxatriazacyclotridecin-4(5H)-one] | 2000 |  |  | 5.5 | 402 |
| CNC(=O)C1Nc2ccn3ncc(c3n2)C(=O)NC[C@H](C)Oc2ccc(F)cc21 (stereo partly drawn) [Compound 61, (7S)-11-fluoro-N,7-dimethyl-4-oxo-4,5,6,7,13,14-hexahydro-1,15-ethenopyrazolo[4,3-f][1,4,8,10]benzoxatriazacyclotridecine-13-carboxamide] | 8000 |  |  | 73.7 | 1070 |
| C[C@H]1CNC(=O)c2cnn3ccc(nc23)NC(C(=O)N(C)C)c2cc(F)ccc2O1 (stereo partly drawn) [Compound 62, (7S)-11-fluoro-N,N,7-trimethyl-4-oxo-4,5,6,7,13,14-hexahydro-1,15-ethenopyrazolo[4,3-f][1,4,8,10]benzoxatriazacyclotridecine-13-carboxamide] | 3000 |  |  | 112 | 3570 |

Stronger by GI50 (EML4-ALK Ba/F3), values ahead:

| GI50 (EML4-ALK Ba/F3) [nM] | IC50 [2] [nM] | GI50 (CD74-ROS1 Ba/F3) [nM] | Structure (SMILES) | IC50 [1] [nM] | IC50 [3] [nM] |
| --- | --- | --- | --- | --- | --- |
| 13.4 | 16.7 | 0.2 | CC[C@@H]1CNC(=O)c2cnn3ccc(nc23)N[C@H](C)c2cc(F)ccc2O1 [Compound 1, (7R,13R)-7-ethyl-11-fluoro-13-methyl-6,7,13,14-tetrahydro-1,15-ethenopyrazolo[4,3-f][1,4,8,10]benzoxatriazacyclotridecin-4(5H)-one] | 0.2 | 67.6 |
| 681 | 354 | 0.7 | CC[C@@H]1COc2ccc(F)cc2[C@@H](C)Nc2ccn3ncc(c3n2)C(=O)N1 [Compound 2, (6R,13R)-6-ethyl-11-fluoro-13-methyl-6,7,13,14-tetrahydro-1,15-ethenopyrazolo[4,3-f][1,4,8,10]benzoxatriazacyclotridecin-4(5H)-one] | 6 | 956 |
| 459 |  | 5.1 | O=C1NCCOc2ccc(F)cc2[C@@H](CCF)Nc2ccn3ncc1c3n2 [Compound 23, (13R)-11-fluoro-13-(2-fluoroethyl)-6,7,13,14-tetrahydro-1,15-ethenopyrazolo[4,3-f][1,4,8,10]benzoxatriazacyclotridecin-4(5H)-one] | 1.3 | 236 |
| 88.5 | 166 |  | COC[C@@H]1CNC(=O)c2cnn3ccc(nc23)N[C@H](C)c2cc(F)ccc2O1 [Compound 25, (7S,13R)-11-fluoro-7-(methoxymethyl)-13-methyl-6,7,13,14-tetrahydro-1,15-ethenopyrazolo[4,3-f][1,4,8,10]benzoxatriazacyclotridecin-4(5H)-one] | 6.1 | 134 |
| 504 |  |  | C[C@H]1Nc2ccn3ncc(c3n2)C(=O)N[C@@H]2CCCC[C@@H]2Oc2ccc(F)cc21 [Compound 47, (4aS,10R,18aR)-8-fluoro-10-methyl-2,3,4,4a,10,11,18,18a-octahydro-12,14-ethenodibenzo[b,l]pyrazolo[4,3-f][1,4,8,10]oxatriazacyclotridecin-17(1H)-one] | 6 | 127 |
| 1480 |  |  | C[C@H]1Nc2ccn3ncc(c3n2)C(=O)N2CCC[C@H](C2)Oc2ccc(F)cc21 [Compound 52, (9R,15R)-13-fluoro-15-methyl-6,7,8,9,15,16-hexahydro-4H-1,17-etheno-5,9-methanopyrazolo[4,3-h][1,6,10,12]benzoxatriazacyclopentadecin-4-one] | 8.7 | 768 |
| 709 |  |  | C[C@H]1Nc2ccn3ncc(c3n2)C(=O)NC[C@@H](CN(C)C)Oc2ccc(F)cc21 [Compound 55, (7S,13R)-7-[(dimethylamino)methyl]-11-fluoro-13-methyl-6,7,13,14-tetrahydro-1,15-ethenopyrazolo[4,3-f][1,4,8,10]benzoxatriazacyclotridecin-4(5H)-one] | 23.5 | 300 |
| 665 |  |  | C[C@H]1Nc2ccn3ncc(c3n2)C(=O)NC[C@@H](CN2CCCC2)Oc2ccc(F)cc21 [Compound 57, (7S,13R)-11-fluoro-13-methyl-7-[(pyrrolidin-1-yl)methyl]-6,7,13,14-tetrahydro-1,15-ethenopyrazolo[4,3-f][1,4,8,10]benzoxatriazacyclotridecin-4(5H)-one] | 70 | 132 |
| 31 |  |  | CC[C@@H]1CNC(=O)c2cnn3ccc(nc23)N[C@H](C)c2cc(F)cnc2O1 [Compound 58, (7R,13R)-7-ethyl-11-fluoro-13-methyl-6,7,13,14-tetrahydro-1,15-ethenopyrazolo[4,3-f]pyrido[3,2-l][1,4,8,10]oxatriazacyclotridecin-4(5H)-one] | 0.2 | 174 |
| 218 |  |  | C[C@H]1CNC(=O)c2cnn3ccc(nc23)N[C@H](C)c2cc(F)cnc2O1 [Compound 60, (7S,13R)-11-fluoro-7,13-dimethyl-6,7,13,14-tetrahydro-1,15-ethenopyrazolo[4,3-f]pyrido[3,2-l][1,4,8,10]oxatriazacyclotridecin-4(5H)-one] | 0.35 | 30.3 |
